Values of other authors as cited in patent US20240342131A1, “Multivitamin for Cystic Fibrosis Patients Undergoing Cystic Fibrosis Transmembrance Conductance Regulator Gene Modulator Therapy” (priority 2021, published 2024).

Conditions: high doses

In the case of `O=C1O[C@H]([C@@H](O)CO)C(O)=C1O` [vitamin C], the side effect is listed as “secretory diarrhea”.
